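Method: 48-hour compound exposure of cells in 96-well plates, five concentrations, linear interpolation of endpoints. The concentration for 50% growth inhibition is given as GI50. TGI is the concentration that stops growth completely.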
Experiments:
Test in all cases: inhibition of tumour cell growth, NCI panel, 48 h
K-562 leukemia = system: K-562 leukemia
COLO 205 colon = system: COLO 205 colon
DU-145 prostate = system: DU-145 prostate
SF-268 CNS = system: SF-268 CNS
HCT-15 colon = system: HCT-15 colon
HOP-92 NSCLC = system: HOP-92 NSCLC
SNB-19 CNS = system: SNB-19 CNS
MDA-MB-231 breast = system: MDA-MB-231 breast
OVCAR-4 ovarian = system: OVCAR-4 ovarian
HS 578T breast = system: HS 578T breast

Structure (SMILES)	TGI (K-562 leukemia) [µM]	TGI (COLO 205 colon) [µM]	TGI (DU-145 prostate) [µM]	TGI (SF-268 CNS) [µM]	TGI (HCT-15 colon) [µM]	TGI (HOP-92 NSCLC) [µM]	TGI (SNB-19 CNS) [µM]	TGI (MDA-MB-231 breast) [µM]	TGI (OVCAR-4 ovarian) [µM]	GI50 (HS 578T breast) [µM]	TGI (HS 578T breast) [µM]	GI50 (OVCAR-4 ovarian) [µM]
O=C(c1ccccc1)c1ccc2nc(-c3c(Cl)c(Cl)c(Cl)c(Cl)c3C(=O)Nc3ccco3)[nH]c2c1	> 100	> 100	> 100	> 100	> 100	> 100	> 100	> 100	> 100	–	–	–
COc1ccc2c3c([nH]c2c1)-c1nc2ccccc2c(=O)n1CC3	> 25	> 25	–	> 25	> 25	–	> 25	> 25	> 25	1.59	10.6	> 25
Cc1cccc(=O)c([O-])c1.Cc1cccc(=O)c([O-])c1.Cc1cccc(=O)c([O-])c1.Cc1cccc(=O)c([O-])c1.[Th+4]	> 38.6	> 100	–	> 100	> 100	> 68.9	> 100	–	> 100	–	–	–
N#C[C@H]1C(=O)C(c2nc3ccccc3[nH]2)S[C@H]1c1ccccc1 (stereo partly drawn)	> 100	> 100	> 100	–	> 100	67.3	> 100	–	> 100	–	> 100	–
COc1ccccc1NC(=O)CSC(N)=O	> 100	> 100	–	> 100	> 100	> 100	> 100	–	> 100	–	–	–
O=C1CCc2cc3c(cc21)C(C(=O)O)CC3 (stereo not drawn)	> 100	> 100	> 100	> 100	> 100	–	> 100	> 100	> 100	–	> 100	–
O=C1NC(=S)N/C1=C\c1ccc(Sc2ccccc2C(=O)O)s1	> 100	> 100	> 100	> 100	> 100	–	> 100	> 100	> 100	–	> 100	–
COc1ccc(Nc2nc(NNC(=O)Cc3ccccc3)nc(NNC(=O)c3ccncc3)n2)cc1	> 10	> 10	> 10	> 10	> 10	> 10	> 10	> 10	> 10	–	–	–
S=c1oc(CCCCCCCCc2nn(CNc3ccc(Cl)cc3)c(=S)o2)nn1CNc1ccc(Cl)cc1	> 100	22.2	> 100	> 100	> 100	> 100	> 100	> 100	> 100	–	–	–
C/C(=C\COP(=O)(O)OP(=O)(O)O)CC/C=C(\C)CNc1ccccc1	> 50	> 50	> 50	> 50	> 50	–	> 50	> 50	–	–	> 50	–
COC(C/C=C\C=C\CC/C=C/CC(C)/C=C/C(=C\C(=O)O)CC(=O)O)/C(C)=C\C=C(/C)C(=O)O (stereo not drawn)	–	> 100	> 100	> 100	> 100	> 100	> 100	> 100	> 100	–	> 100	–
CCCCCCCCCCC[N+]1(Cc2ccccc2)CC2CCN(Cc3ccccc3)CC2C1 (stereo not drawn)	0.827	2.18	1.51	2.13	2.96	1.62	1.49	–	2.02	–	1.57	–
CC(=O)c1cc(S(=O)(=O)c2ccc(O)c(C(C)=O)c2)ccc1O	> 100	> 100	> 100	> 100	> 100	> 100	> 100	> 100	> 100	–	–	–
COc1ccc(C2C3=CONC3CC3CCCCC32)cc1 (stereo not drawn)	> 100	–	–	> 100	–	–	> 100	–	> 100	–	–	–
O=C(NCCNCCO)N/N=C/c1ccccc1	> 100	–	–	> 100	> 100	–	> 100	–	> 100	–	–	–
Cc1ccc(C2(N3CCOCC3)OC(C)(C)c3cccc4cccc2c34)cc1 (stereo not drawn)	> 100	31	37	28.7	40	25.5	32.6	–	31.1	–	46	–
Cc1c(Cl)c(=O)oc2cc(OCC(O)COC(C)C)ccc12 (stereo not drawn)	> 100	47.8	> 100	> 100	–	> 100	> 100	–	> 100	–	> 100	–

Source: PubChem BioAssay (NCI)
